From ChEMBL document CHEMBL1131176, “Structure-based enhancement of boronic acid-based inhibitors of AmpC beta-lactamase” (J Med Chem, 1998)

Tests used:
Beta-lactamase [1] = target: T1, Beta-lactamase (Escherichia coli K-12, UniProt P00811); assay: Inhibitory activity against Escherichia coli AmpC beta-lactamase.
Beta-lactamase [2] = target: T1, Beta-lactamase; assay: Compound was tested for its specificity against AmpC beta-lactamase
Chymotrypsinogen A = Chymotrypsinogen A (Bos taurus, UniProt P00766); assay: Compound was tested for its specificity against alpha-chymotrypsin
Homo sapiens = organism: Homo sapiens; assay: Compound was tested for its specificity against Elastase

T1 sequence (P00811 whole entry): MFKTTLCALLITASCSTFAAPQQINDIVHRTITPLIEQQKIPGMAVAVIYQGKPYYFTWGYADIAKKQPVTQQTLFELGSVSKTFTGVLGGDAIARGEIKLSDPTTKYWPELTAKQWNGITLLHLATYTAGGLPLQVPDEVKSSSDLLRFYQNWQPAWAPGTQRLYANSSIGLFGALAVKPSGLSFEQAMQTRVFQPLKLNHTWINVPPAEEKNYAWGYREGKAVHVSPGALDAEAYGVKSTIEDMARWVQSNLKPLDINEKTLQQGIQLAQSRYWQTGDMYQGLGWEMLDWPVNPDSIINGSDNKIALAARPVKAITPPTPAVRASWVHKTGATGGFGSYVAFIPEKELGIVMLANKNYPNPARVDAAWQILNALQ

Structure (SMILES)	Ki (Beta-lactamase [1])	IC50 (Beta-lactamase [2])	IC50 (Chymotrypsinogen A)	IC50 (Homo sapiens)
O=C(O)c1cccc(B(O)O)c1	> 100 µM			
OB(O)c1ccsc1	22.1 µM			
OB(O)c1cccs1			> 200 µM	200 µM
OB(c1ccccc1)c1ccccc1 [DIPHENYL BORINIC ACID]	> 100 µM			
OB(O)c1cc2ccccc2c2ccccc12	7 µM			
O=Cc1ccccc1B(O)O	25.3 µM			
CCCCB(O)O [BUTYL BORONIC ACID]	> 100 µM			
OB(O)c1cccc2ccccc12	12 µM			
OB(O)c1ccco1	> 100 µM			
OB(O)c1cc2ccccc2s1			5 µM	
OB(O)[C@@H]1CCOC1		5 µM	> 200 µM	> 200 µM
OB(O)c1ccc(-c2ccc(B(O)O)cc2)cc1	0.2 µM			

Continued, values first:

Ki (Beta-lactamase [1])	IC50 (Beta-lactamase [2])	IC50 (Chymotrypsinogen A)	IC50 (Homo sapiens)	Structure (SMILES)
6.4 µM				OB(O)c1ccc(F)cc1
5.4 µM				Cc1ccc(B(O)O)cc1 [TOLYL BORONIC ACID]
0.22 µM	0.6 µM	14 µM		OB(O)c1cc2ccccc2o1
10.5 µM				OB(O)c1ccccc1 [PHENYLBORONIC ACID]
1.3 µM	5 µM	> 100 µM	50 µM	CN(C)c1cccc2c(S(=O)(=O)Nc3cccc(B(O)O)c3)cccc12 [M(DANSYLAMIDOPHENYL)BORONIC ACID]
3 µM				OB(O)c1ccc(C(F)(F)F)cc1
3.6 µM				OB(O)c1ccc(Br)cc1
3.8 µM				O=Cc1ccsc1B(O)O
1.1 µM	5 µM	> 200 µM	> 200 µM	OB(O)c1cccc(C(F)(F)F)c1
0.41 µM	2 µM	> 100 µM	200 µM	OB(O)c1ccc(Cl)s1
5.9 µM				COc1ccc(B(O)O)cc1
1.6 µM				CC(=O)c1ccc(B(O)O)s1
2.9 µM				O=Cc1ccc(B(O)O)cc1
3.9 µM				OB(O)c1ccc(B(O)O)cc1
